Like-named read-outs stand apart in the source and are kept apart here. Bounds are passed on as bounds.

One assay deals with 229E Mpro (Human coronavirus 229E, UniProt P0C6X1). As to the kind of experiment: 229E Mpro enzymatic assay (standard methods, SARS-CoV2 Mpro assay given as exemplary). It is filed as biochemical, human coronavirus (HCov) 229E. In short, it runs like this:
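Run by standard methods, with the SARS-CoV-2 Mpro protocol given as the model: E. coli-expressed C-His6 protease at 25 nM and substrate at 25 μM (Km 13.5 μM). Buffer pH 7.3 with 5 mM TCEP and 0.1% BSA; % inhibition versus controls fitted to variable-slope log(inhibitor)-response for IC50.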

The target of assay [1] is COVID-19 (nCoV-2019, SARS-CoV2) Mpro (Severe acute respiratory syndrome coronavirus 2, UniProt P0DTD1). Description: COVID-19 (nCoV-2019, SARS-CoV2) Mpro enzymatic assay. It counts as biochemical. The following applies: 25 nM Mpro, 25 μM substrate; read-out: COVID-19 Mpro IC50.
In another assay the test system is HCov OC43. Description: HCoV OC43 cytopathic effect (CPE) assay, CellTiter Glo. It counts as cell-based, human coronavirus (HCov) OC43.
Where [2] appears, read: Betacoronavirus 1, OC43, read-out: OC43 IC50 (uM) MEDIAN, median.
The mark [3] stands for this setting: read-out: OC43 IC50 (uM) MEDIAN, median.

Sequence of 229E Mpro (P0C6X1 2966-3267): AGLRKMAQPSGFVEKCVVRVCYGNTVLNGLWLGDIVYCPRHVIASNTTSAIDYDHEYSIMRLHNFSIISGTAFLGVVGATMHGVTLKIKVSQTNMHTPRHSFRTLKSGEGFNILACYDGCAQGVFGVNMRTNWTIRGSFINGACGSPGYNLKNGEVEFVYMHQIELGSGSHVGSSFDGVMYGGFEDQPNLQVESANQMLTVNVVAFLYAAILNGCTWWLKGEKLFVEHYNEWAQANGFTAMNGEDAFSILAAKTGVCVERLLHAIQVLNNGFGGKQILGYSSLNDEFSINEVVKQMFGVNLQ

On to `CC1(O)C[C@H](C(=O)N(c2ccc(C(C)(C)C)cc2)C(C(=O)NC2CCCCC2)c2cccnc2)N(C#N)C1` (single isomer, unassigned) [Compound 284 Isomer 1], for which the EC50 on 229E Mpro (read-out: 229E Mpro EC50) is below 2000 nM. Further, the IC50 in assay [1] lay in the range of 2 to 10 µM; in the assay on HCov OC43 (read-out: OC43 IC50 (uM) MEDIAN, median, listed as 284 Isomer 1), 10 to 30 µM.
At 229E Mpro (229E Mpro EC50), `CC(C)(C)c1ccc(N(C(=O)[C@H]2CCCN2C#N)C(C(=O)NCc2ccncc2)c2cccnc2)cc1` (single isomer, unassigned) [Compound 439 Isomer 1] returned an EC50 below 2000 nM. The IC50 in assay [1] fell in the range of 2 to 10 µM; in the assay on HCov OC43 (setting [2]) it was 10 to 30 µM.
With `C[C@@]1(O)C[C@H](C(=O)N(c2ccc(S(F)(F)(F)(F)F)cc2)C(C(=O)NC2CCC(F)(F)CC2)c2cccnc2F)N(C#N)C1` (single isomer, unassigned) [1158 Isomer 2], the EC50 on 229E Mpro (read-out: 229E Mpro EC50) is below 2000 nM. The half-inhibitory concentration (IC50) in assay [1] is 2 to 10 µM; in the assay on HCov OC43 (setting [3]), below 2 µM.
The corresponding values for `N#CN1C[C@@H](OC(F)F)C[C@@H]1C(=O)N(c1ccc(S(F)(F)(F)(F)F)cc1)C(C(=O)NC1CCC(F)(F)CC1)c1cncc(F)c1` (single isomer, unassigned) [Compound 823a Isomer 2] are below 2000 nM, below 2 µM and 2 to 10 µM.
Molecule `N#CC1(C(=O)N(c2ccc(S(F)(F)(F)(F)F)cc2)C(C(=O)NC2CCC(F)(F)CC2)c2cncc(F)c2)CC1` (single isomer, unassigned) [1289 Isomer 1, 1-cyano-N-[2-[(4,4-difluorocyclohexyl)amino]-1-(5-fluoro-3-pyridyl)-2-oxo-ethyl]-N-[4-(pentafluoro-λ^6-sulfanyl)phenyl]cyclopropanecarboxamide] came in with a concentration for a half-maximal effect (EC50) at 229E Mpro (229E Mpro EC50) above 30000 nM. In addition, the IC50 (in assay [1]; in the assay on HCov OC43 (setting [2])) was above 30 µM in each case.
On to `N#CN1CC(=O)NCC1C(=O)N(c1ccc(S(F)(F)(F)(F)F)cc1)C(C(=O)NC1CCC(F)(F)CC1)c1cncc(F)c1` (single isomer, unassigned) [Compound 1160 Isomer 2, 1-cyano-N-[2-[(4,4-difluorocyclohexyl)amino]-1-(5-fluoro-3-pyridyl)-2-oxo-ethyl]-5-oxo-N-[4-(pentafluoro-λ6-sulfanyl)phenyl]piperazine-2-carboxamide], for which the EC50 on 229E Mpro (229E Mpro EC50) lay within 2000 to 10000 nM. The IC50 in assay [1] was in the range of 2 to 10 µM; in the assay with HCov OC43 (read-out: OC43 IC50 (uM) MEDIAN, median, listed as 1160 Isomer 2) it was 2 to 10 µM.
`CC(C)(C)c1ccc(N(C(=O)[C@H]2CCCN2C#N)C(C(=O)N2CCOCC2)c2cccnc2)cc1` (single isomer, unassigned) [Compound 959 Isomer 1] returned an EC50 on 229E Mpro (229E Mpro EC50) of 2000 to 10000 nM. Also, the IC50 is above 30 µM in assay [1] and 10 to 30 µM in the assay with HCov OC43 (read-out: OC43 IC50 (uM) MEDIAN, median, listed as 959 Isomer 1).
For the molecule `N#CN1C[C@@H]2CC[C@@H]2[C@@H]1C(=O)N(c1ccc(S(F)(F)(F)(F)F)cc1)C(C(=O)NC1CCC(F)(F)CC1)c1cncc(F)c1` (single isomer, unassigned) [1097 Isomer 2], the EC50 at 229E Mpro (229E Mpro EC50) was in the range of 2000 to 10000 nM. Besides, the values for the half-inhibitory concentration (IC50) (in assay [1]; with HCov OC43 (setting [3])) were 10 to 30 µM and 2 to 10 µM, respectively.
The corresponding values for `C[C@@]1(O)C[C@H](C(=O)N(c2ccc(-c3ccccc3)cc2)C(C(=O)NC2CCC(F)(F)CC2)c2cncc(F)c2)N(C#N)C1` (single isomer, unassigned) [1330 Isomer 2] are 2000 to 10000 nM, 2 to 10 µM and 10 to 30 µM.
Molecule `C[C@@]1(O)C[C@H](C(=O)N(c2ccc(S(F)(F)(F)(F)F)cc2)C(C(=O)NC2CCC(F)(F)CC2)c2ccc(F)nc2)N(C#N)C1` (single isomer, unassigned) [1157 Isomer 1] had a 50% effective concentration (EC50) at 229E Mpro (229E Mpro EC50) below 2000 nM. Besides, the 50% inhibitory concentration (IC50) (in assay [1]; in the assay with HCov OC43 (setting [2])) was below 2 µM each time.
On to `CN(C)CCCNC(=O)C(c1cccnc1)N(C(=O)[C@H]1CCCN1C#N)c1ccc(C(C)(C)C)cc1` (stereo partly drawn) [Compound 455], for which the EC50 at 229E Mpro (229E Mpro EC50) is below 2000 nM. The figures for the IC50 (in assay [1]; in the assay with HCov OC43 (setting [2])) were 2 to 10 µM and 10 to 30 µM, respectively.
As to `N#CN1C[C@@H]2C[C@@H]2[C@@H]1C(=O)N(c1ccc(S(F)(F)(F)(F)F)cc1)C(C(=O)NC1CCC(F)(F)CC1)c1cncc(F)c1` (single isomer, unassigned) [1096 Isomer 2], the EC50 at 229E Mpro (read-out: 229E Mpro EC50) is below 2000 nM. For the same molecule, the IC50 (in assay [1]; in the assay with HCov OC43 (setting [3])) was below 2 µM in each case.

The EC50 is the midpoint of the concentration-response curve. In general, IC50 refers to the concentration that inhibits the measured activity by half.
